From patent US10184115B2, “Mutated cellobiose dehydrogenase with increased substrate specificity” (DIRECTSENS GMBH, priority 2012, dated 2019)

Target: T1, Corynascus thermophilus cellobiose dehydrogenase (CDH), recombinant wild type, SEQ ID NO: 7 (Thermothelomyces fergusii, UniProt E7D6B9)
T1 sequence (E7D6B9 24-787): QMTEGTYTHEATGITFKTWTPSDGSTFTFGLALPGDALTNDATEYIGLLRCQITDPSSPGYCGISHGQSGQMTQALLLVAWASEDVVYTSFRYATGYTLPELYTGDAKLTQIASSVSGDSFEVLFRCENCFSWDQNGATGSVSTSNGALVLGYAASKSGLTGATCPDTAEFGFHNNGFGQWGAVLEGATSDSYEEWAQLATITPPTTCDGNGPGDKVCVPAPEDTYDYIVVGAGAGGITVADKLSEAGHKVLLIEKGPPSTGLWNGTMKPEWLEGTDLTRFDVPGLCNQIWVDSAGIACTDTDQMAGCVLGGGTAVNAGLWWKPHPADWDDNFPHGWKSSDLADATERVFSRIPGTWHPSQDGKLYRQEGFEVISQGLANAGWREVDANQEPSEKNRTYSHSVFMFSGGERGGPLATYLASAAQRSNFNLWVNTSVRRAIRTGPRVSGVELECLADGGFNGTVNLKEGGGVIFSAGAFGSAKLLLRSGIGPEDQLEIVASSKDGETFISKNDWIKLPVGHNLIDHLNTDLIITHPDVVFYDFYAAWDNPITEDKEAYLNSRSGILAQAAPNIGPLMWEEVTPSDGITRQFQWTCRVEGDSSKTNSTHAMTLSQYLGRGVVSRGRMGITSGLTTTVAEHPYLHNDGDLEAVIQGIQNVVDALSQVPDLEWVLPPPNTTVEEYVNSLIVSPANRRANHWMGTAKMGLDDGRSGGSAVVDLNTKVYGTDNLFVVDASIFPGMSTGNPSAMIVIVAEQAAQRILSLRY
Experiment: Steady-state kinetics, DCIP assay: C. thermophilus CDH wt
Conditions: apparent, pH 5.5, 30° C.
Description: Enzyme activity was assayed at 30° C. using either the DCIP (Karapetyan et al., 2005 Journal of Biotechnology 121: 34-48) or cytochrome c (Canevascini et al., 1991, European Journal of Biochemistry 198: 43-52) as electron acceptor. […] Stock solutions of carbohydrates used for kinetic measurements were prepared in the respective buffer and allowed to stand overnight for mutarotation, while stock solutions of electron acceptors were prepared in water and immediately used. The reaction stoichiometry is 1 for the two-electron acceptor DCIP (1 mole of DCIP reduced per mole of carbohydrate oxidized), but 2 for the one-electron acceptor cytochrome c. Kinetic constants were calculated by fitting the observed data to the Henri-Michaelis-Menten equation or to the adapted model for substrate inhibition using nonlinear least-squares regression and the program SigmaPlot (Systat Software, San Jose, Calif., USA). […]
Recombinant wild-type CDH as well as variants were produced in 1 L baffled flasks. […] Increase in activity was monitored using the DCIP and the cytochrome c enzyme assays. […]
The sample was loaded on a 20 mL PHE Sepharose FF column (HR26/20) equilibrated with 50 mM Na-acetate buffer pH 5.5 containing 20% ammonium sulfate. […] Fractions were tested for CDH activity and pooled according to the highest Reinheitszahl (RZ, calculated from the absorbance ratio 420 nm/280 nm). […]

OC[C@H]1OC(O)[C@H](O)[C@@H](O)[C@@H]1O (some centres unmarked) [Glucose, glucose]
kcat: 4.09 s⁻¹
kcat/KM: 170 M⁻¹ s⁻¹
